From patent US20210238162A1, “CHEMICAL COMPOUNDS” (GlaxoSmithKline Intellectual Property Development Limited, priority 2015, published 2021)
Counter-ions that a name gives are not always drawn.

These compounds were tested against T1, haematopoietic prostaglandin D synthase (H-PGDS) (Homo sapiens, UniProt O60760) (assay: H-PGDS RapidFire High Throughput Mass Spectrometry Assay). Conditions: H-PGDS RapidFire MS assay, mean pIC50; read-out: Potency Range (mean pIC50) (converted).
T1 construct: Full length human H-PGDS cDNA (Invitrogen Ultimate ORF IOH13026) was amplified by PCR; made in house; host or cells: E. coli BL21 (DE3*), vector pET22b+
T1 sequence (O60760 whole entry): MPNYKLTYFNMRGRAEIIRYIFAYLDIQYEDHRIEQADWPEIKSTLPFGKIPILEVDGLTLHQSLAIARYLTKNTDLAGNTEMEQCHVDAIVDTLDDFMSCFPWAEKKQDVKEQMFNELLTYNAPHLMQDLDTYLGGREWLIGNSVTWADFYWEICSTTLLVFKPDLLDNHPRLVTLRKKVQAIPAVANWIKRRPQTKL
Format: biochemical
Outline: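 PGH2 (~10 μM burst) generated in situ from arachidonic acid by FLAG-tagged human COX-2 (Sf9-expressed), then converted to PGD2 by full-length human His-tagged H-PGDS from E. coli. PGD2 and PGF2α (substrate surrogate) quantified by RapidFire SPE-triple quadrupole MS; percent conversion calculated.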
For CC(C)Nc1cc2ncc(C(=O)N[C@H]3CC[C@H](C(C)(C)O)CC3)cc2cc1Cl [Example 212, 6-Chloro-N-((trans)-4-(2-hydroxypropan-2-yl)cyclohexyl)-7-(isopropylamino)quinoline-3-carboxamide], the IC50 was under 10 nM.
In the case of CC(C)(N[C@H]1CC[C@H](NC(=O)c2cnc3cc(OC(F)F)c(F)cc3c2)CC1)C(F)(F)F [Example 66, 7-(Difluoromethoxy)-6-fluoro-N-(trans-4-((1,1-trifluoro-2-methylpropan-2-yl)amino)cyclohexyl)quinoline-3-carboxamide], the IC50 is reported as under 10 nM.
Work on C[C@@H](NC[C@H]1CC[C@H](NC(=O)c2cnc3cc(OC(F)F)c(F)cc3c2)CC1)C(F)F [Example 99, 7-(Difluoromethoxy)-N-(trans-4-((((R)-1,1-difluoropropan-2-yl)amino)methyl)cyclohexyl)-6-fluoroquinoline-3-carboxamide] yielded an IC50 of 10 to 79.4 nM.
CC(C)C(O)CO[C@H]1CC[C@H](NC(=O)c2cnc3cc(OC(F)F)c(Cl)cc3c2)CC1 (stereo partly drawn) [Example 127, 6-Chloro-7-(difluoromethoxy)-N-(trans-4-(2-hydroxy-3-methylbutoxy)cyclohexyl)quinoline-3-carboxamide] showed an IC50 of under 10 nM.
In the case of C[C@H]1CCN1c1cc2ncc(C(=O)N[C@H]3CC[C@H](C(C)(C)O)CC3)cc2cc1Cl [Example 187, 6-Chloro-N-(trans-4-(2-hydroxypropan-2-yl)cyclohexyl)-7-((S)-2-methylazetidin-1-yl)quinoline-3-carboxamide], the IC50 is reported as under 10 nM.
With CC(C)(O)[C@H]1CC[C@H](NC(=O)c2cnc3cc(C4CC4)c(F)cc3c2)CC1 [Example 42, 7-Cyclopropyl-6-fluoro-N-(trans-4-(2-hydroxypropan-2-yl)cyclohexyl)quinoline-3-carboxamide] the IC50 was under 10 nM.
With COc1cc2ncc(C(=O)NC3CCN(c4nnnn4C)CC3)cc2cc1Cl [Example 32, 6-Chloro-7-methoxy-N-(1-(1-methyl-1H-tetrazol-5-yl)piperidin-4-yl)quinoline-3-carboxamide] the IC50 was 10 to 79.4 nM.
In the case of O=C(N[C@H]1CCNC1=O)c1cnc2cc(OC(F)F)c(Br)cc2c1 [Example 154, (S)-6-Bromo-7-(difluoromethoxy)-N-(2-oxopyrrolidin-3-yl)quinoline-3-carboxamide], the IC50 is reported as under 10 nM.
Cn1nnnc1N1CCC(NC(=O)c2cnc3cc(C(F)(F)F)ccc3c2)CC1 [Example 107, N-(1-(1-Methyl-1H-tetrazol-5-yl)piperidin-4-yl)-7-(trifluoromethyl)quinoline-3-carboxamide] was tested, and the IC50 was 100 to 1000 nM.
C[C@H](NC[C@H]1CC[C@H](NC(=O)c2cnc3cc(OC(F)F)c(F)cc3c2)CC1)C(F)F [Example 100, 7-(Difluoromethoxy)-N-(trans-4-((((S)-1,1-difluoropropan-2-yl)amino)methyl)cyclohexyl)-6-fluoroquinoline-3-carboxamide] gave an IC50 of 10 to 79.4 nM.
Work on CN(C)c1cc2ncc(C(=O)N[C@H]3CC[C@H](C(C)(C)O)CC3)cc2cc1F [Example 160, 7-(Dimethylamino)-6-fluoro-N-(trans-4-(2-hydroxypropan-2-yl)cyclohexyl)quinoline-3-carboxamide] yielded an IC50 of under 10 nM.
COc1cc2ncc(C(=O)NC3CCN(c4nnnn4C)CC3)cc2cc1C [Example 29, 7-Methoxy-6-methyl-N-(1-(1-methyl-1H-tetrazol-5-yl)piperidin-4-yl)quinoline-3-carboxamide] showed an IC50 of 10 to 79.4 nM.
With CC(C)(O)[C@H]1CC[C@H](NC(=O)c2cnc3cc(N=[N+]=[N-])c(Cl)cc3c2)CC1 [Example 168, 7-Azido-6-chloro-N-(trans-4-(2-hydroxypropan-2-yl)cyclohexyl)quinoline-3-carboxamide] the IC50 was 10 to 79.4 nM.
For C#CCCNC(=O)CO[C@H]1CC[C@H](NC(=O)c2cnc3cc(OC(F)F)c(F)cc3c2)CC1 [Example 103, N-(trans-4-(2-(but-3-yn-1-ylamino)-2-oxoethoxy)cyclohexyl)-7-(difluoromethoxy)-6-fluoroquinoline-3-carboxamide], the IC50 was 10 to 79.4 nM.
O=C(N[C@H]1C[C@H](NCC(F)(F)F)C1)c1cnc2cc(OC(F)F)c(F)cc2c1 [Example 59, 7-(Difluoromethoxy)-6-fluoro-N-(trans-3-((2,2,2-trifluoroethyl)amino)cyclobutyl)quinoline-3-carboxamide] was tested, and the IC50 was 10 to 79.4 nM.
In the case of CC(C)(O)[C@H]1CC[C@H](NC(=O)c2cnc3cc4c(cc3c2)OCO4)CC1 [Example 195, N-(trans-4-(2-Hydroxypropan-2-yl)cyclohexyl)-[1,3]dioxolo[4,5-q]quinoline-7-carboxamide], the IC50 is reported as 100 to 1000 nM.
Compound O=C(N[C@H]1CC[C@H](C2(O)CC2)CC1)c1cnc2cc(OC(F)F)ccc2c1 [Example 18, 7-(Difluoromethoxy)-N-(trans-4-(1-hydroxycyclopropyl)cyclohexyl)quinoline-3-carboxamide] has an IC50 of under 10 nM.
O=C(N[C@H]1CCN(CC2CCCC2)C1=O)c1cnc2cc(OC(F)F)c(F)cc2c1 [Example 78, (S)—N-(1-(Cyclopentylmethyl)-2-oxopyrrolidin-3-yl)-7-(difluoromethoxy)-6-fluoroquinoline-3-carboxamide] was tested, and the IC50 was 10 to 79.4 nM.
CC1CCN1c1cc2ncc(C(=O)N[C@H]3CCNC3=O)cc2cc1Cl (stereo partly drawn) [Example 182, 6-Chloro-7-(2-methylazetidin-1-yl)-N—((S)-2-oxopyrrolidin-3-yl)quinoline-3-carboxamide] showed an IC50 of 10 to 79.4 nM.
COc1ccc2cc(C(=O)NC3CCN(c4nnnn4C)CC3)cnc2c1OC [Example 33, 7,8-Dimethoxy-N-(1-(1-methyl-1H-tetrazol-5-yl)piperidin-4-yl)quinoline-3-carboxamide] showed an IC50 of 10 to 79.4 nM.
Work on CC(C)(O)[C@H]1CC[C@H](NC(=O)c2cnc3cc(N4CC(F)(F)C4)c(F)cc3c2)CC1 [Example 177, 7-(3,3-Difluoroazetidin-1-yl)-6-fluoro-N-(trans-4-(2-hydroxypropan-2-yl)cyclohexyl)quinoline-3-carboxamide] yielded an IC50 of 10 to 79.4 nM.
O=C(N[C@H]1CCNC1=O)c1cnc2cc(C3CC3)c(Cl)cc2c1 [Example 35, (S)-6-Chloro-7-cyclopropyl-N-(2-oxopyrrolidin-3-yl)quinoline-3-carboxamide hydrochloride] gave an IC50 of under 10 nM.
Cn1nnnc1N1CCC(NC(=O)c2cnc3ccc(Cl)cc3c2)CC1 [Example 106, 6-Chloro-N-(1-(1-methyl-1H-tetrazol-5-yl)piperidin-4-yl)quinoline-3-carboxamide] was tested, and the IC50 was 100 to 1000 nM.
In the case of O=C(N[C@H]1CCNC1=O)c1cnc2cc(C3CC3)c(F)cc2c1 [Example 41, (S)-7-cyclopropyl-6-fluoro-N-(2-oxopyrrolidin-3-yl)quinoline-3-carboxamide hydrochloride], the IC50 is reported as 10 to 79.4 nM.
O=C(NC1CCc2ccccc2NC1=O)c1cnc2cc(OC(F)F)c(Cl)cc2c1 (stereo not shown) [Example 237, 6-Chloro-7-(difluoromethoxy)-N-(2-oxo-2,3,4,5-tetrahydro-1H-benzo[b]azepin-3-yl)quinoline-3-carboxamide] gave an IC50 of under 10 nM.
C[C@]1(O)C[C@@H](NC(=O)c2cnc3cc(OC(F)F)c(Br)cc3c2)C1 [Example 157, 6-Bromo-7-(difluoromethoxy)-N-((1s,3s)-3-hydroxy-3-methylcyclobutyl)quinoline-3-carboxamide] was tested, and the IC50 was 10 to 79.4 nM.
Compound O=C(NC1CCN(CC(F)(F)F)CC1)c1cnc2cc(OC(F)F)c(F)cc2c1 [Example 58, 7-(Difluoromethoxy)-6-fluoro-N-(1-(2,2,2-trifluoroethyl)piperidin-4-yl)quinoline-3-carboxamide] has an IC50 of 10 to 79.4 nM.

Same assay, conditions: in at least one experimental run; read-out: H-PGDS pIC50 value (converted)
For C[C@H]1CCN1c1cc2ncc(C(=O)N[C@H]3CC[C@H](C(C)(C)O)CC3)cc2cc1Cl [Example 187, 6-Chloro-N-(trans-4-(2-hydroxypropan-2-yl)cyclohexyl)-7-((S)-2-methylazetidin-1-yl)quinoline-3-carboxamide], the IC50 was 6.31 nM.
CN(C)c1cc2ncc(C(=O)N[C@H]3CC[C@H](C(C)(C)O)CC3)cc2cc1F [Example 160, 7-(Dimethylamino)-6-fluoro-N-(trans-4-(2-hydroxypropan-2-yl)cyclohexyl)quinoline-3-carboxamide] showed an IC50 of 3.98 nM.
O=C(N[C@H]1C[C@H](NCC(F)(F)F)C1)c1cnc2cc(OC(F)F)c(F)cc2c1 [Example 59, 7-(Difluoromethoxy)-6-fluoro-N-(trans-3-((2,2,2-trifluoroethyl)amino)cyclobutyl)quinoline-3-carboxamide] showed an IC50 of 50.1 nM.
CC(C)(O)[C@H]1CC[C@H](NC(=O)c2cnc3cc(N4CC(F)(F)C4)c(F)cc3c2)CC1 [Example 177, 7-(3,3-Difluoroazetidin-1-yl)-6-fluoro-N-(trans-4-(2-hydroxypropan-2-yl)cyclohexyl)quinoline-3-carboxamide] was tested, and the IC50 was 20 nM.
